Measured values as given in ChEMBL document CHEMBL5120793, “A Natural Plant Ingredient, Menthone, Regulates T Cell Subtypes and Lowers Pro-inflammatory Cytokines of Rheumatoid Arthritis” (J Nat Prod, 2022).
Calls of active or inactive are those of the source.

Columns and labels:
[1] = test system: CD4+ve Th; test: Antiinflammatory activity against PMA induced DBA-1 mouse spleen CD4+ve Th cells assessed as reduction in TNF-alpha mRNA level at 50 to 100 uM incubated for 24 hrs by RT-qPCR assay; format: functional, cell-based; conditions: dose 50-100 µM
[2] = test system: Mus musculus; test: Antiarthritic activity against collagen-II induced rheumatoid arthritis DBA-1 mouse model assessed as reduction in blood IL-1beta mRNA level at 100 mg/kg administered for 14 days on day 60 to day 74 post-immunization by RT-qPCR assay; format: functional, organism-based; conditions: time 14.0 day
[3] = test system: Mus musculus; test: Antiarthritic activity against collagen-II induced rheumatoid arthritis DBA-1 mouse blood CD4+ T cells assessed as reduction in T-bet mRNA level at 100 mg/kg administered for 14 days on day 60 to day 74 post-immunization by RT-qPCR assay; format: functional, organism-based; conditions: T-cell, time 14.0 day
[4] = test system: Mus musculus; test: Antiarthritic activity against collagen-II induced rheumatoid arthritis DBA-1 mouse spleen CD4+ T cells assessed as reduction in Th1 cells differentiation at 100 mg/kg administered for 14 days on day 60 to day 74 post-immunization by flow cytometry analysis; format: functional, organism-based; conditions: T-cell, time 14.0 day
[5] = test system: Mus musculus; test: Antiarthritic activity against collagen-II induced rheumatoid arthritis DBA-1 mouse blood CD4+ T cells assessed as reduction in Th17 cells differentiation at 100 mg/kg administered for 14 days on day 60 to day 74 post-immunization by flow cytometry analysis; format: functional, organism-based; conditions: T-cell, time 14.0 day
[6] = test system: Mus musculus; test: Antiarthritic activity against collagen-II induced rheumatoid arthritis DBA-1 mouse model assessed as reduction in serum IL-6 level at 100 mg/kg administered for 14 days on day 60 to day 74 post-immunization by ELISA; format: functional, organism-based; conditions: time 14.0 day
[7] = test system: Mus musculus; test: Antiarthritic activity against collagen-II induced rheumatoid arthritis DBA-1 mouse model assessed as reduction in clinical score at 100 mg/kg administered for 14 days on day 60 to day 74 post-immunization; format: functional, organism-based; conditions: time 14.0 day
[8] = test system: Mus musculus; test: Antiarthritic activity against collagen-II induced rheumatoid arthritis DBA-1 mouse spleen CD4+ T cells assessed as reduction in RORgammaT mRNA level at 100 mg/kg administered for 14 days on day 60 to day 74 post-immunization by RT-qPCR assay; format: functional, organism-based; conditions: T-cell, time 14.0 day
[9] = test system: Mus musculus; test: Antiarthritic activity against collagen-II induced rheumatoid arthritis DBA-1 mouse spleen CD4+ T cells assessed as increase in GATA3 mRNA level at 100 mg/kg administered for 14 days on day 60 to day 74 post-immunization by RT-qPCR assay; format: functional, organism-based; conditions: T-cell, time 14.0 day
[10] = test system: Mus musculus; test: Antiarthritic activity against collagen-II induced rheumatoid arthritis DBA-1 mouse spleen CD4+ T cells assessed as increase in Foxp3 mRNA level at 100 mg/kg administered for 14 days on day 60 to day 74 post-immunization by RT-qPCR assay; format: functional, organism-based; conditions: T-cell, time 14.0 day
[11] = test system: CD4+ve Th; test: Antiinflammatory activity against PMA induced DBA-1 mouse spleen CD4+ve Th cells assessed as reduction in IL-1beta mRNA level at 50 to 100 uM incubated for 24 hrs by RT-qPCR assay; format: functional, cell-based; conditions: dose 50-100 µM
[12] = test system: Mus musculus; test: Antiarthritic activity against collagen-II induced rheumatoid arthritis DBA-1 mouse model assessed as reduction in damage of articular cartilage at 100 mg/kg administered for 14 days on day 60 to day 74 post-immunization; format: functional, organism-based; conditions: time 14.0 day
[13] = test system: Mus musculus; test: Antiarthritic activity against collagen-II induced rheumatoid arthritis DBA-1 mouse model assessed as reduction in IL-1beta protein level at 100 mg/kg administered for 14 days on day 60 to day 74 post-immunization by immunohistochemistry analysis; format: functional, organism-based; conditions: time 14.0 day
[14] = test system: Mus musculus; test: Antiarthritic activity against collagen-II induced rheumatoid arthritis DBA-1 mouse spleen CD4+ T cells assessed as reduction in Th17 cells differentiation at 100 mg/kg administered for 14 days on day 60 to day 74 post-immunization by flow cytometry analysis; format: functional, organism-based; conditions: T-cell, time 14.0 day
[15] = test system: Mus musculus; test: Antiarthritic activity against collagen-II induced rheumatoid arthritis DBA-1 mouse blood CD4+ T cells assessed as increase in GATA3 mRNA level at 100 mg/kg administered for 14 days on day 60 to day 74 post-immunization by RT-qPCR assay; format: functional, organism-based; conditions: T-cell, time 14.0 day
[16] = test system: Mus musculus; test: Antiarthritic activity against collagen-II induced rheumatoid arthritis DBA-1 mouse model assessed as reduction in blood TNF-alpha mRNA level at 100 mg/kg administered for 14 days on day 60 to day 74 post-immunization by RT-qPCR assay; format: functional, organism-based; conditions: time 14.0 day
[17] = test system: Mus musculus; test: Antiarthritic activity against collagen-II induced rheumatoid arthritis DBA-1 mouse blood CD4+ T cells assessed as reduction in Th1 cells differentiation at 100 mg/kg administered for 14 days on day 60 to day 74 post-immunization by flow cytometry analysis; format: functional, organism-based; conditions: T-cell, time 14.0 day
[18] = test system: Mus musculus; test: Antiarthritic activity against collagen-II induced rheumatoid arthritis DBA-1 mouse model assessed as reduction in serum TNF-alpha level at 100 mg/kg administered for 14 days on day 60 to day 74 post-immunization by ELISA; format: functional, organism-based; conditions: time 14.0 day
[19] = test system: Mus musculus; test: Antiarthritic activity against collagen-II induced rheumatoid arthritis DBA-1 mouse model assessed as reduction in IL-17 protein level at 100 mg/kg administered for 14 days on day 60 to day 74 post-immunization by immunohistochemistry analysis; format: functional, organism-based; conditions: time 14.0 day
[20] = test system: Mus musculus; test: Antiarthritic activity against collagen-II induced rheumatoid arthritis DBA-1 mouse spleen CD4+ T cells assessed as reduction in T-bet mRNA level at 100 mg/kg administered for 14 days on day 60 to day 74 post-immunization by RT-qPCR assay; format: functional, organism-based; conditions: T-cell, time 14.0 day
[21] = test system: Mus musculus; test: Antiarthritic activity against collagen-II induced rheumatoid arthritis DBA-1 mouse blood CD4+ T cells assessed as reduction in RORgammaT mRNA level at 100 mg/kg administered for 14 days on day 60 to day 74 post-immunization by RT-qPCR assay; format: functional, organism-based; conditions: T-cell, time 14.0 day
[22] = test system: Mus musculus; test: Antiarthritic activity against collagen-II induced rheumatoid arthritis DBA-1 mouse blood CD4+ T cells assessed as increase in Foxp3 mRNA level at 100 mg/kg administered for 14 days on day 60 to day 74 post-immunization by RT-qPCR assay; format: functional, organism-based; conditions: T-cell, time 14.0 day
[23] = test system: Mus musculus; test: Antiarthritic activity against collagen-II induced rheumatoid arthritis DBA-1 mouse model assessed as reduction in serum IL-1beta level at 100 mg/kg administered for 14 days on day 60 to day 74 post-immunization by ELISA; format: functional, organism-based; conditions: time 14.0 day
[24] = test system: Mus musculus; test: Antiarthritic activity against collagen-II induced rheumatoid arthritis DBA-1 mouse model assessed as reduction in TNF-alpha protein level at 100 mg/kg administered for 14 days on day 60 to day 74 post-immunization by immunohistochemistry analysis; format: functional, organism-based; conditions: time 14.0 day
[25] = test system: Mus musculus; test: Antiarthritic activity against collagen-II induced rheumatoid arthritis DBA-1 mouse model assessed as reduction in synovial hyperplasia at 100 mg/kg administered for 14 days on day 60 to day 74 post-immunization; format: functional, organism-based; conditions: time 14.0 day
[26] = test system: Mus musculus; test: Antiarthritic activity against collagen-II induced rheumatoid arthritis DBA-1 mouse model assessed as reduction in blood IL-6 mRNA level at 100 mg/kg administered for 14 days on day 60 to day 74 post-immunization by RT-qPCR assay; format: functional, organism-based; conditions: time 14.0 day
[27] = test system: CD4+ve Th; test: Antiinflammatory activity against PMA induced DBA-1 mouse spleen CD4+ve Th cells assessed as reduction in IL-6 mRNA level at 50 to 100 uM incubated for 24 hrs by RT-qPCR assay; format: functional, cell-based; conditions: dose 50-100 µM

Measured: Activity

CC(C)[C@@H]1CC[C@@H](C)CC1=O
active: [1] | [2] | [3] | [4] | [5] | [6] | [7] | [8] | [9] | [10] | [11] | [12] | [13] | [14] | [15] | [16] | [17] | [18] | [19] | [20] | [21] | [22] | [23] | [24] | [25] | [26] | [27]
